Where “and” joins values, the source holds several entries; their conditions need not be identical. Identical values can stand only once.
Assays:
[1] = Rate constant in brain homogenate; format: ADME, tissue-based
[2] = Half life in whole rat blood; format: ADME
[3] = Half life in brain homogenate; format: ADME, tissue-based
Rattus norvegicus [4] = species: Rattus norvegicus; test: Rate constant in whole rat blood; format: ADME
[5] = Half life in liver homogenate; format: ADME, tissue-based
[6] = Partition coefficient (logP); format: physicochemical; details: octanol/water
[7] = Rate constant in liver homogenate; format: ADME, tissue-based; details: tissue homogenate
Rattus norvegicus [8] = test: Concentration in brain hr after administration of compound 4d; format: functional, organism-based
Rattus norvegicus [9] = test: Concentration in brain 0.25 hr after administration of compound 4d; format: functional, organism-based
Rattus norvegicus [10] = test: Concentration in brain 3 hr after administration of compound 4d; format: functional, organism-based
Rattus norvegicus [11] = test: Concentration in blood 1 hr after administration of compound 4d; format: functional, organism-based
Rattus norvegicus [12] = test: Concentration in brain 24 hr after administration of compound 4d; format: functional, organism-based
Rattus norvegicus [13] = test: Concentration in blood 0.25 hr after administration of compound 4d; format: functional, organism-based
Rattus norvegicus [14] = test: Concentration in brain 6 hr after administration of compound 4d; format: functional, organism-based

| Compound | k [1] [min⁻¹] | half-life [2] [min] | half-life [3] [min] | k (Rattus norvegicus [4]) [min⁻¹] | half-life [5] [min] | logP [6] | k [7] [min⁻¹] | Concentration (Rattus norvegicus [8]) | Concentration (Rattus norvegicus [9]) [ng/g] | Concentration (Rattus norvegicus [10]) [ng/g] | Concentration (Rattus norvegicus [11]) [ng/g] | Concentration (Rattus norvegicus [12]) [ng/g] | Concentration (Rattus norvegicus [13]) [ng/g] | Concentration (Rattus norvegicus [14]) [ng/g] |
| --- | --- | --- | --- | --- | --- | --- | --- | --- | --- | --- | --- | --- | --- | --- |
| C#C[C@]1(OC(=O)C2=CN(C)C=CC2)CC[C@H]2[C@@H]3CCc4cc(O)ccc4[C@H]3CC[C@@]21C | 0.0567 | 49.9 | 12.4 | 0.0139 | 24.5 | 4.53 | 0.0227 |  |  |  |  |  |  |  |
| CN1C=CCC(C(=O)O[C@H]2CC[C@H]3[C@@H]4CCc5cc(O)ccc5[C@H]4CC[C@]23C)=C1 | 0.0537 | 39.6 | 12.9 | 0.0175 | 30.5 | 4.5 | 0.0283 |  |  |  |  |  |  |  |
| C#C[C@]1(OC(=O)c2ccc[n+](C)c2)CC[C@H]2[C@@H]3CCc4cc(O)ccc4[C@H]3CC[C@@]21C |  |  |  |  |  |  |  | 7.16 ng/g and 7.35 ng/g | 7.16 | 7.35 | 0.552 | 7.79 | 0.822 | 7.07 |
